Reference: the supplement of paper PMC10307832

Experiments:
Assay in all cases: relative viability (nuclei count vs DMSO), 5 days (fraction); higher = more cells survive
[1] = compound: N=C1NC(=O)/C(=C/c2ccc(O)cc2)S1 [Mirin] + NC(=O)Nc1cc(-c2cccc(F)c2)sc1C(=O)N[C@H]1CCCNC1 [AZD7762] (partner 0.2 µM)
How it was run: (§1)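 Relative viability divides the nuclei count in treated wells by that in vehicle wells. Lung cancer cell lines were seeded in 1536-well plates, dosed by pin tool the next day, and fixed and stained after 5 days in one step with final 0.05% Triton X-100, 1% formaldehyde and 1 ug/ml Hoechst. Dosing was a single drug or a fixed anchor-drug dose plus five library-drug doses (not always all listed) in √10 steps, and values are medians of duplicate plates imaged at 4×.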

[2] = compound: N=C1NC(=O)/C(=C/c2ccc(O)cc2)S1 [Mirin] + CC(=O)Nc1cccc(-n2c(=O)n(C3CC3)c(=O)c3c(Nc4ccc(I)cc4F)n(C)c(=O)c(C)c32)c1 [Trametinib] (partner 0.02 µM)
How it was run: as §1

[3] = compound: CCC1=CN=CN=C1N2CCN(CC2)CC3=NC4=C(N3)C=C(C=C4)C(F)(F)F + CS(=O)(=O)N1CCN(Cc2cc3nc(-c4cccc5[nH]ncc45)nc(N4CCOCC4)c3s2)CC1 [Pictilisib] (partner 1 µM)
How it was run: as §1

[4] = compound: N=C1NC(=O)/C(=C/c2ccc(O)cc2)S1 [Mirin] + CC(=O)c1c(C)c2cnc(Nc3ccc(N4CCNCC4)cn3)nc2n(C2CCCC2)c1=O [Palbociclib] (partner 0.5 µM)
How it was run: as §1

Cell Line	relative viability ([1]; first compound 0.25 µM)	relative viability ([1]; first compound 0.7906 µM)	relative viability ([1]; first compound 2.5 µM)	relative viability ([1]; first compound 7.906 µM)	relative viability ([1]; first compound 25 µM)	relative viability ([2]; first compound 0.25 µM)	relative viability ([2]; first compound 0.7906 µM)	relative viability ([2]; first compound 2.5 µM)	relative viability ([2]; first compound 7.906 µM)	relative viability ([2]; first compound 25 µM)	relative viability ([3]; first compound 0.04 µM)	relative viability ([3]; first compound 0.1265 µM)	relative viability ([3]; first compound 0.4 µM)	relative viability ([3]; first compound 4 µM)	relative viability ([4]; first compound 0.25 µM)	relative viability ([4]; first compound 0.7906 µM)	relative viability ([4]; first compound 2.5 µM)	relative viability ([4]; first compound 7.906 µM)	relative viability ([4]; first compound 25 µM)	relative viability ([3]; first compound 1.265 µM)
HCC-366	0.313	0.541	0.28	0.262	0.364	0.382	0.348	0.33	0.337	0.28	0.242	0.124	0.133	0.134	0.35	0.39	0.405	0.404	0.366	
HCC-827	0.209	0.184	0.242	0.157	0.225	0.529	0.471	0.584	0.607	0.547	0.978	1.04	1.03	0.994	0.524	0.37	0.459	0.439	0.418	0.957
HOP-62	0.729	1.08	0.478	0.549	0.383	0.369	0.447	0.355	0.491	0.398	0.661	0.669	0.705	0.76	0.465	0.536	0.46	0.381	0.458	0.642
IA-LM											0.409	0.33	0.323	0.3						0.325
LC-2-ad	0.836	0.812	0.825	0.933	0.817	0.964	1.06	0.979	0.906	0.945	0.459	0.512	0.424	0.326	0.543	0.456	0.474	0.505	0.483	0.328
LCLC-97TM1	0.212		0.263		0.329	0.172	0.179	0.235	0.176	0.165	0.181	0.198	0.181	0.214	0.227	0.236	0.192	0.152	0.198	0.204
NCI-H520						0.542	0.571	0.659	0.603	0.477	0.326	0.28	0.238	0.279	0.214	0.267	0.245	0.188	0.138	0.255
NCI-H522	0.813	0.805	0.83	0.861	0.595	0.682	0.741	0.872	0.768	0.519					1.02	0.943	1.19	0.875	0.605	
NCI-H596	1	1.02	1.09	1.05	1.11	0.872	0.77	0.763	0.873	0.835	0.399	0.366	0.396	0.413						0.327
NCI-H661						0.59	0.722	0.628	0.482	0.575	0.358	0.402	0.412	0.366	0.416	0.426	0.406	0.369	0.401	
NCI-H1299											0.819	0.728	0.972	0.673						0.752
NCI-H1563											0.643	0.684	0.65	0.698						0.616
NCI-H1648	0.722		0.652	0.641	0.576	0.448		0.41	0.457	0.389					0.328		0.304	0.265	0.224	
NCI-H1650						0.534	0.544	0.579	0.551	0.62	0.525	0.586	0.558	0.818	0.362	0.346	0.336	0.369	0.263	0.306
NCI-H1703	0.115	0.148	0.146		0.117						0.238	0.277	0.263	0.227						0.232
NCI-H2009						0.277	0.334	0.334	0.293	0.282	0.821	0.824	0.826	0.544	0.221	0.262	0.162	0.202	0.238	0.514
NCI-H2023						0.716	0.558	0.668	0.56	0.597	0.274	0.225	0.216	0.319	0.386	0.368	0.409	0.349	0.315	0.192
NCI-H2228						0.627	0.39	0.551	0.382	0.423	0.383	0.397	0.297	0.436	0.863	0.704	0.799	0.647	0.622	0.309
NCI-H2342	0.581	0.451	0.487		0.459	0.805	0.853	0.803		0.751					0.482	0.537	0.459		0.51	
SK-LU-1						0.519	0.519	0.568	0.383	0.538	0.573	0.494	0.469	0.486	0.433	0.393	0.417	0.348	0.405	
SK-MES-1						0.505	0.569	0.571	0.585	0.716	0.431	0.354	0.346	0.38	0.305	0.338	0.303	0.3	0.451	0.282
SW 900	0.67	0.669	0.669	0.518	0.641	0.95	0.76	0.826	0.971	0.653					0.478	0.485	0.499	0.464	0.503	
SW 1573						0.647	0.557	0.567	0.51	0.369	0.441	0.43	0.44	0.426	0.366	0.42	0.375	0.42	0.292	0.474
